Reference: PubChem BioAssay AID1259407 (Chemical Carcinogenesis Research Information System (CCRIS), 2018)
Calls of active or inactive are those of the source. The rule behind the calls is not given here.

Tested on: CCRIS mutagenicity, Ames/micronucleus/aberration tests
Experiment: CCRIS mutagenicity studies
[1] = Test System: AMES SALMONELLA TYPHIMURIUM, Strain/Indicator: TA98, Metabolic Activation: NONE, Method: STANDARD PLATE
[2] = Test System: AMES SALMONELLA TYPHIMURIUM, Strain/Indicator: TA100, Metabolic Activation: NONE, Method: STANDARD PLATE
[3] = Test System: AMES SALMONELLA TYPHIMURIUM, Strain/Indicator: TA100, Metabolic Activation: NONE, Method: PREINCUBATION

O=[N+]([O-])c1ccc2ccc3c4ccccc4cc4ccc1c2c43
mutagenic call (Test System: AMES SALMONELLA TYPHIMURIUM, Strain/Indicator: TA98(1,8-DNP6), Metabolic Activation: NONE): active; positive
mutagenic call (Test System: AMES SALMONELLA TYPHIMURIUM, Strain/Indicator: TA98 (1,8-DNP6), Metabolic Activation: NONE, Method: STANDARD PLATE): active; positive
mutagenic call (Test System: AMES SALMONELLA TYPHIMURIUM, Strain/Indicator: TA98(NR), Metabolic Activation: NONE): active; positive
mutagenic call (Test System: AMES SALMONELLA TYPHIMURIUM, Strain/Indicator: TA98(NR), Metabolic Activation: NONE, Method: PREINCUBATION): active; positive
mutagenic call (Test System: AMES SALMONELLA TYPHIMURIUM, Strain/Indicator: TA98 (NR), Metabolic Activation: NONE, Method: STANDARD PLATE): inactive; negative
mutagenic call (Test System: AMES SALMONELLA TYPHIMURIUM, Strain/Indicator: TA98, Metabolic Activation: NONE): active; positive
mutagenic call (Test System: AMES SALMONELLA TYPHIMURIUM, Strain/Indicator: TA98, Metabolic Activation: NONE', Method: STANDARD PLATE): active; positive
mutagenic call (Test System: AMES SALMONELLA TYPHIMURIUM, Strain/Indicator: TA98, Metabolic Activation: NONE, Method: PREINCUBATION): active; positive
mutagenic call [1]: active; positive
mutagenic call (Test System: AMES SALMONELLA TYPHIMURIUM, Strain/Indicator: TA98, Metabolic Activation: NONE, Method: STANDARD PLATE (ANAEROBIC)): active; positive
mutagenic call (Test System: AMES SALMONELLA TYPHIMURIUM, Strain/Indicator: TA98, Metabolic Activation: RAT, LIVER, HEPATOCYTES, AROCLOR 1254): active; positive
mutagenic call (Test System: AMES SALMONELLA TYPHIMURIUM, Strain/Indicator: TA98, Metabolic Activation: RAT, LIVER, S-9, AROCLOR 1254): active; positive
mutagenic call [2]: active; positive
mutagenic call (Test System: CHINESE HAMSTER OVARY, Strain/Indicator: CHO-K1-BH4 (HGPRT), Metabolic Activation: NONE): inactive; negative
mutagenic call (Test System: CHINESE HAMSTER OVARY, Strain/Indicator: CHO-K1-BH4 (HGPRT), Metabolic Activation: RAT, LIVER, S-9, 3-METHYLCHOLANTHRENE): active; positive
mutagenic call (Test System: CHO/HGPRT, Strain/Indicator: CHO-K1-BH4, Metabolic Activation: NONE): inactive; negative
mutagenic call (Test System: CHO/HGPRT, Strain/Indicator: CHO-K1-BH4, Metabolic Activation: RAT, LIVER, HEPATOCYTES): inactive; negative
mutagenic call (Test System: CHO/HGPRT, Strain/Indicator: CHO-K1-BH4, Metabolic Activation: RAT, LIVER, HEPATOCYTES, 3-METHYLCHOLANTHRENE): inactive; negative
mutagenic call (Test System: CHO/HGPRT, Strain/Indicator: CHO-K1-BH4, Metabolic Activation: RAT, LIVER, HEPATOCYTES, AROCLOR 1254): inactive; negative
mutagenic call (Test System: CHO/HGPRT, Strain/Indicator: CHO-K1-BH4, Metabolic Activation: RAT, LIVER, S-9): inactive; negative
mutagenic call (Test System: CHO/HGPRT, Strain/Indicator: CHO-K1-BH4, Metabolic Activation: RAT, LIVER, S-9, 3-METHYLCHOLANTHRENE): active; positive
mutagenic call (Test System: CHO/HGPRT, Strain/Indicator: CHO-K1-BH4, Metabolic Activation: RAT, LIVER, S-9, AROCLOR 1254): active; positive

Oc1ccc(O)c(O)c1
mutagenic call (End Point: IN VITRO CHROMOSOMAL ABERRATIONS, Test System: HUMAN PERIPHERAL LYMPHOCYTES, Metabolic Activation: NONE): active; positive (ploidy changes)
mutagenic call (End Point: IN VITRO CHROMOSOMAL ABERRATIONS, Test System: HUMAN PERIPHERAL LYMPHOCYTES, Metabolic Activation: NONE, Method: FISH): active; positive (ploidy); greater effects on certain chromosomes
mutagenic call (End Point: IN VITRO CHROMOSOMAL ABERRATIONS, Test System: HUMAN PERIPHERAL LYMPHOCYTES, Metabolic Activation: NONE, Method: FISH - DUAL COLOR PROBES): active; positive (ploidy changes in chromosomes 7 and 8)
mutagenic call (End Point: IN VITRO CHROMOSOMAL ABERRATIONS, Test System: HUMAN PERIPHERAL LYMPHOCYTES, Metabolic Activation: NONE, Method: FISH- DUAL COLOR PROBES): inactive; negative for translocations
mutagenic call (End Point: IN VITRO MICRONUCLEUS, Test System: HUMAN PERIPHERAL LYMPHOCYTES, Metabolic Activation: NONE, Method: FISH - DUAL COLOR PROBES): active; positive
mutagenic call (Test System: AMES SALMONELLA TYPHIMURIUM, Strain/Indicator: TA97, Metabolic Activation: RAT, LIVER, S-9, AROCLOR 1254, Method: PREINCUBATION): inactive; negative
mutagenic call (Test System: AMES SALMONELLA TYPHIMURIUM, Strain/Indicator: TA97, Metabolic Activation: RAT, LIVER, S-9, PHENOBARBITAL, Method: PREINCUBATION): inactive; negative
mutagenic call (Test System: AMES SALMONELLA TYPHIMURIUM, Strain/Indicator: TA98, Metabolic Activation: RAT, LIVER, S-9, AROCLOR 1254, Method: PREINCUBATION): inactive; negative
mutagenic call (Test System: AMES SALMONELLA TYPHIMURIUM, Strain/Indicator: TA98, Metabolic Activation: RAT, LIVER, S-9, PHENOBARBITAL, Method: PREINCUBATION): inactive; negative
mutagenic call (Test System: AMES SALMONELLA TYPHIMURIUM, Strain/Indicator: TA100, Metabolic Activation: NONE, Method: FLUCTUATION TEST): inactive; negative
mutagenic call [3]: inactive; negative
mutagenic call (Test System: AMES SALMONELLA TYPHIMURIUM, Strain/Indicator: TA100, Metabolic Activation: RAT, LIVER, S-9, AROCLOR 1254, Method: PREINCUBATION): inactive; negative
mutagenic call (Test System: AMES SALMONELLA TYPHIMURIUM, Strain/Indicator: TA100, Metabolic Activation: RAT, LIVER, S-9, PCB, Method: FLUCTUATION TEST): active; positive
mutagenic call (Test System: AMES SALMONELLA TYPHIMURIUM, Strain/Indicator: TA100, Metabolic Activation: RAT, LIVER, S-9, PHENOBARBITAL, Method: PREINCUBATION): inactive; negative
mutagenic call (Test System: AMES SALMONELLA TYPHIMURIUM, Strain/Indicator: TA102, Metabolic Activation: NONE, Method: PREINCUBATION): inactive; negative
mutagenic call (Test System: AMES SALMONELLA TYPHIMURIUM, Strain/Indicator: TA102, Metabolic Activation: RAT, LIVER, S-9, AROCLOR 1254, Method: PREINCUBATION): inactive; negative
mutagenic call (Test System: AMES SALMONELLA TYPHIMURIUM, Strain/Indicator: TA104, Metabolic Activation: NONE, Method: PREINCUBATION): inactive; negative
mutagenic call (Test System: AMES SALMONELLA TYPHIMURIUM, Strain/Indicator: TA1535, Metabolic Activation: NONE, Method: PREINCUBATION): inactive; negative
mutagenic call (Test System: AMES SALMONELLA TYPHIMURIUM, Strain/Indicator: TA1535, Metabolic Activation: RAT, LIVER, S-9, AROCLOR 1254, Method: PREINCUBATION): inactive; negative
mutagenic call (Test System: CHINESE HAMSTER V-79, Strain/Indicator: V-79/6-THIOGUANINE, Metabolic Activation: NONE): active; positive

CC1(c2ccccc2)CO1 (stereo not given)
mutagenic call [3]: active; positive

O=C1NC(=O)C2CC=CCC12 (stereo not given)
mutagenic call (Test System: AMES SALMONELLA TYPHIMURIUM, Strain/Indicator: TA102, Metabolic Activation: NONE, Method: STANDARD PLATE): inactive; negative
mutagenic call (Test System: AMES SALMONELLA TYPHIMURIUM, Strain/Indicator: TA102, Metabolic Activation: RAT, LIVER, S-9, PHENOBARBITAL, Method: STANDARD PLATE): inactive; negative
mutagenic call (Test System: AMES SALMONELLA TYPHIMURIUM, Strain/Indicator: TA104, Metabolic Activation: NONE, Method: STANDARD PLATE): inactive; negative
mutagenic call (Test System: AMES SALMONELLA TYPHIMURIUM, Strain/Indicator: TA104, Metabolic Activation: RAT, LIVER, S-9, PHENOBARBITAL, Method: STANDARD PLATE): inactive; negative

O=[N+]([O-])c1ccc(-c2ncn[nH]2)o1
mutagenic call (Test System: E. COLI, Strain/Indicator: WP2 UVRA, Metabolic Activation: NONE, Method: SPOT): active; positive

[N-]=[N+]=NC[C@H]1O[C@H](O)[C@H](O)[C@@H](O)[C@H]1O
mutagenic call [1]: inactive; negative
mutagenic call [2]: active; positive
